One data set concerns PSMA+ LNCaP cells. The data set is described as follows: Internalization experiments (surface-bound and internalized fractions). It counts as cell-based. The note with it: 30 nM radiolabeled compound, 45 min. How it is done: (§1) PSMA^+ LNCaP cells (ATCC CRL-1740) were cultured in RPMI medium supplemented with 10% fetal calf serum and 2 mmol/L L-glutamine (all from PAA). Cells were grown at 37° C. in humidified air with 5% CO2 and were harvested using trypsin-ethylenediaminetetraacetic acid (trypsin-EDTA; 0.25% trypsin, 0.02% EDTA, Invitrogen).
For internalization experiments, 10^5 cells per well were seeded in poly-L-lysine coated 24-well cell culture plates 24 h before incubation. After washing, the cells were incubated with 30 nM of the radiolabeled compound for 45 min at 37° C. and at 4° C., respectively. Cellular uptake was terminated by washing 3 times with 1 mL of ice-cold PBS. To remove surface-bound radioactivity, cells were incubated twice with 0.5 mL glycine-HCl in PBS (50 mM, pH=2.8) for 5 min. The cells were washed with 1 mL of ice-cold PBS and lysed using 0.3 N NaOH (0.5 mL). The surface-bound and the internalized fractions were measured in a gamma counter. The cell uptake was calculated as percent of the initially added radioactivity bound to 10^5 cells [% ID/10^5 cells].

The next data set concerns the target T1, PSMA (PSMA+ LNCaP cells) (Homo sapiens, UniProt Q04609).
T1 construct: host or cells: LNCaP cells
Nature of the data set: Competitive cell binding assay against 68Ga-labeled PSMA-10 radioligand. As to conditions: radioligand [68Ga]Ga-PSMA-10 0.75 nM, metal-free ligand. Here is the method: as §1
The competitive cell binding assay and internalization experiments were performed as described previously (4). Briefly, the cells (10^5 per well) were incubated with a 0.75 nM solution of ^68Ga-labeled radioligand [Glu-urea-Lys(Ahx)]2-HBED-CC (PSMA-10, precursor ordered from ABX, Radeberg, Germany) in the presence of 12 different concentrations of analyte (0-5000 nM, 100 μL/well). After incubation, the mixture was removed and the wells were washed 3 times with PBS using a multiscreen vacuum manifold (Millipore, Billerica, Mass.). Cell-bound radioactivity was measured using a gamma counter (Packard Cobra II, GMI, Minn., USA). The 50% inhibitory concentration (IC50) values were calculated by fitting the data using a nonlinear regression algorithm (GraphPad Software).

The target in a further data set is PSMA (Homo sapiens, UniProt Q04609). The note with it: radioligand of the competitive binding assay; cited from earlier work.
Data set [1] can be described thus: Biodistribution (organ distribution) of 68Ga-labeled compounds in LNCaP-tumor bearing mice. It counts as in vivo, BALB/c nu/nu mice. As to conditions: 1 h p.i. Here is the method:
The precursor peptides [1 nmol in HEPES buffer (580 mg/ml), 40 μL] were added to 40 μL [^68Ga]Ga^3+ eluate (˜40 MBq). The pH was adjusted to 3.8 using 30% NaOH and 10% NaOH, respectively. The reaction mixture was incubated at 98° C. for 10 minutes. The radiochemical yield (RCY) was determined by HPLC.
For the experimental tumor models 5×10^6 cells of LNCaP (in 50% Matrigel; Becton Dickinson, Heidelberg, Germany) were subcutaneously inoculated into the right trunk of 7- to 8-week-old male BALB/c nu/nu mice (Charles River). The tumors were allowed to grow until approximately 1 cm^3 in size. The ^68Ga-labeled compounds were injected into a tail vein (1-2 MBq; 60 pmol). At 1 h after injection the animals were sacrificed. Organs of interest were dissected, blotted dry, and weighed. The radioactivity was measured using a gamma counter and calculated as % ID/g. All animal experiments complied with the current laws of the Federal Republic of Germany.

PSMA, sequence (Q04609 whole entry, species assumed): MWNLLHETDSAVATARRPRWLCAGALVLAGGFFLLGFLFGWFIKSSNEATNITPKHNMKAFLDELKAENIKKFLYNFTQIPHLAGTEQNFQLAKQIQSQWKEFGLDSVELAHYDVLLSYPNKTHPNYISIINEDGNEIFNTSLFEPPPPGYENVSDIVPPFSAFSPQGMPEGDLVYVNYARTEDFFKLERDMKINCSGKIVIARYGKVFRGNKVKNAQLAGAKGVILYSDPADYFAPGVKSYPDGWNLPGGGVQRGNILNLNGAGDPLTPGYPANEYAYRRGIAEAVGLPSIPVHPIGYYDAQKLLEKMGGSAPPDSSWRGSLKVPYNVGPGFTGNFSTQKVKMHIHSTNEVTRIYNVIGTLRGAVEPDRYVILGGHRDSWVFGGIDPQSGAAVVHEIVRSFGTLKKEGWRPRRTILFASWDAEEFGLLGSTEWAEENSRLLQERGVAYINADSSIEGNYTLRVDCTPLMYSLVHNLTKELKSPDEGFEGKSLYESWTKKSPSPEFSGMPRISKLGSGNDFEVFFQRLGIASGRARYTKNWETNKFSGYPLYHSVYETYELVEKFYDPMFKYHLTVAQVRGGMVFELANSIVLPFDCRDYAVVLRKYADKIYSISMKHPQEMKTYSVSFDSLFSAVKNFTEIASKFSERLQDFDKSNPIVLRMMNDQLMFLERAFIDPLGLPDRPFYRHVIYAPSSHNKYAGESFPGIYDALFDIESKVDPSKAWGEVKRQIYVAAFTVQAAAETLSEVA
T1 sequence (Q04609 whole entry): as the sequence (Q04609 whole entry, species assumed) above

As to `CC1(C)C(/C=C/C2=C(Oc3ccc(S(=O)(=O)O)cc3)C(=C/C=C3/N(CCCCS(=O)(=O)O)c4ccc(S(=O)(=O)O)cc4C3(C)C)/CCC2)=[N+](CCCCCC(=O)NCCCC[C@H](NC(=O)CN2CCN(CC(=O)O)CCN(CC(=O)O)CCN(CC(=O)O)CC2)C(=O)NC[C@H]2CC[C@H](C(=O)N[C@@H](Cc3ccc4ccccc4c3)C(=O)NCCCC[C@H](NC(=O)N[C@@H](CCC(=O)O)C(=O)O)C(=O)O)CC2)c2ccc(S(=O)(=O)[O-])cc21` (stereo in doubt) [Glu-urea-Lys-2-Nal-Chx-Lys(IRDye800CW)-DOTA], in the data set with PSMA+ LNCaP cells, the “Specific cell surface bound” value came to 25.51 ± 9.73 % ID/10^5 cells and the Specific internalized came out at 27.64 ± 12.80 % ID/10^5 cells. The IC50 at PSMA (PSMA+ LNCaP cells) was found to be 15.9 ± 5.46 nM.

On to “[Glu-urea-Lys(Ahx)]2-HBED-CC [[^68Ga]Ga -PSMA-10]”, for which the Kd on PSMA is 2.1 nM.

With “^68Ga-Glu-urea-Lys-2-Nal-Chx-Lys(IRDye800CW)-DOTA”, in data set [1] (in words), the “Kidney uptake in comparison to the reference” value is “significantly reduced” and the “Tumor uptake in comparison to the reference” value is recorded as “comparable”. Moreover, in data set [1] (tail vein, 60 pmol, n = 3), the “Organ distribution, Blood (Mean)” value is given as 1.14 % ID/g; the “Organ distribution, Brain (Mean)” value worked out at 0.07 % ID/g; the “Organ distribution, Heart (Mean)” value turned out to be 0.51 % ID/g; the “Organ distribution, Intestine (Mean)” value came to 0.43 % ID/g. In data set [1] (tail vein, 60 pmol, n = 3), the “Organ distribution, Kidney (Mean)” value was 65.64 % ID/g; the “Organ distribution, Liver (Mean)” value is 0.95 % ID/g; the “Organ distribution, Lung (Mean)” value is listed as 1.47 % ID/g; the “Organ distribution, Muscle (Mean)” value worked out at 0.34 % ID/g. Also, the “Organ distribution, Spleen (Mean)” value in data set [1] (tail vein, 60 pmol, n = 3) was found to be 2.82 % ID/g. Further, in data set [1] (LNCaP tumor, tail vein, 60 pmol, n = 3), the “Organ distribution, Tumor (Mean)” value is listed as 4.13 % ID/g.
